Measured values: US12558329B2 (New York University, priority 2021, dated 2026)
Entries after “also recorded” stand apart in the source; their conditions may differ.

Assays:
human cells = assay: 18O2-GASSP labelling of human cells, untargeted polar metabolomics, with or without IOX1; type: cell-based; conditions: 18O labelling of the metabolite in cells treated with IOX1 (dioxygenase inhibitor), 24 hours
Procedure: To map the molecular fate of O2 in metabolic pathways in living cells, GASSP was used to carry out ^18O2 labelling in cell lines of different tissue origins at ^18O2 concentrations that represented physiological (3%), hypoxic (1%), and severely hypoxic (0.2%) oxygen tensions found in tissues and tumours^7. At the end of each run, polar metabolites were extracted and untargeted polar metabolomics using liquid chromatography-high resolution mass spectrometry (LC-MS) were carried out to identify metabolites labeled with ^18O.
A list of unique features identified by untargeted metabolomics that were >0.25% (natural abundance of ^18O is 0.2%) labelled by ^18O atoms in each cell line at each oxygen tension was generated. In addition, background signal was controlled by requiring that ^18O labeled peaks had to have a signal that was two-fold greater than naturally occurring isotopes found in non-labelled (^16O) metabolite cell extracts. To determine the proportion of unique ^18O labelled features that were due to dioxygenase activity, cells were treated with a pan-dioxygenase inhibitor (IOX1) at concentrations that inhibit iron-dependent dioxygenases, such as the HIF1α prolyl hydroxylases (FIGS. 5E-5F) and identified ^18O labelled polar metabolites. This list of ^18O metabolites was generated by identifying all features in the unlabelled samples, filtering these features against blank samples to remove background peaks, and calculating the fractional ^18O labelling with the assumption that a metabolite would have no more than three oxygen atoms labelled, followed by manual curation of labelled features (FIG. 1B and FIG. 5G). […] These ^18O-labelled features were termed the oxy-metabolome.
To determine the identities of the labeled metabolites, the list of ^18O labelled features was annotated to their corresponding unlabelled metabolites using retention time matching, tandem mass spectrometry (MS2) fragmentation patterns, and database searching.
All steps involved in setting up labelling with ^18O2 were performed at room temperature and inside a chemical fume hood. The procedure may vary depending on the type and number of tissue culture plates in the chamber and the amount of media in the plates. Users must test the system by using ^16O2:CO2:N2 or other unlabelled gases to optimize conditions for their needs and avoid consumption of costly labelled gases. Cells were treated with or without 5 μM MG132, 500 μM IOX1, 250 μM DFO, or 70 μM ascorbate, before placing tissue culture plates into the modular incubator chamber (MIC) containing a wireless oxygen sensor and a 15 cm dish of water to maintain humidity. Next, the clamps were closed to form an air-tight seal between the lid and platform of the MIC. […] N2 flushing was repeated for a total of three times, or until the sensor in the chamber stabilized at 0% O2 for 10 minutes.

HPDL [1] = target: T1, HPDL (Homo sapiens, UniProt Q96IR7); assay: HPDL enzymatic assay with immunopurified HPDL-FLAG; type: biochemical; conditions: 400 μM substrate, 37° C., 21% 16O2, 1 hour
T1 construct: made in house; host or cells: MIAPACA2 sgHPDL #3 (HPDL-knockout) cells stably infected with the pLenti6.2 lentiviral vector; anti-FLAG M2 magnetic bead immunoprecipitation
T1 sequence (Q96IR7 1-371): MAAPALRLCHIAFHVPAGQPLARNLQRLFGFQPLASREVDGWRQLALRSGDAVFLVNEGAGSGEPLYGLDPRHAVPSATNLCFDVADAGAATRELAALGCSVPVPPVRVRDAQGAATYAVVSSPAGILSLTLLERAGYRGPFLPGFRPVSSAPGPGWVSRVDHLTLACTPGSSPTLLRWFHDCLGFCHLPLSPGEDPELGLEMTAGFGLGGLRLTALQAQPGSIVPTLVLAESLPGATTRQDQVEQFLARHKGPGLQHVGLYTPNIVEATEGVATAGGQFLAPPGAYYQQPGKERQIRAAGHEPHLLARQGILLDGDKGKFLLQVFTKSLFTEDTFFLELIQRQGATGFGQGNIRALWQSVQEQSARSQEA
Procedure: Homogentisate, the product of HPD, was not produced in any of the present enzymatic assays. […] This directly confirmed that HPDL activity, and not a potential HPDL-interacting enzyme, was needed for 4-HMA synthesis.
For the HPDL enzymatic assay, cell lysates were generated in TNE lysis buffer (50 mM Tris-HCl pH 8.0, 150 mM NaCl, 2 mM EDTA, and 1% NP-40, supplemented with protease (ThermoFisher Scientific) and phosphatase (10 mM NaF, 10 mM β-glycerophosphate, and 10 mM sodium pyrophosphate) inhibitors. HPDL-FLAG was immunoprecipitated using anti-FLAG M2 magnetic beads (Millipore Sigma, M8823). Cell lysates were incubated with anti-FLAG M2 magnetic beads for 1 hour at 4° C. on a rotating platform. Beads were washed four times with TNE lysis buffer, and then 10% and 90% of the immunopurified protein was used for immunoblotting or enzymatic assay, respectively. […] At the end of the assay, 10 uL of assay buffer was retrieved and prepared for analysis by gas chromatography-mass spectrometry (GC-MS, see Metabolomics section).

MIAPACA2 cells [2] = assay: Pulse-chase study with tyrosine-derived intermediates after two weeks of 13C9-Tyr labelling; type: cell-based, human; conditions: for effect on intracellular levels of the other Tyr-derived metabolites: exogenous unlabelled metabolite; for increase of the fraction of unlabelled (non-labelled) CoQ10: unlabelled intermediate added in the presence of 13C9-Tyr, 21% O2
Procedure: Using the same experimental scheme, the incorporation of Tyr-derived metabolites into CoQ10 was measured. […] For metabolomics, briefly, cells were washed in 4° C. 0.9% saline and metabolites were extracted with 46% methanol:23% H2O:[…] chloroform that contained a labelled amino acid standard mix (MSK-A2-1.2, Cambridge Isotope Laboratories, Inc.). Enzymatic assay samples were extracted using 80% methanol: 20% H2O that contained labelled amino acid standards. Extracts were placed into 1.5 mL Eppendorf tubes, vortexed at 4° C. for 10 min and centrifuged at 4° C. for 10 min at 17,200×g in a microcentrifuge. The aqueous phase was transferred to vials for GC-MS or Eppendorf tubes for LC-MS. Polar samples were evaporated in a […] and samples were resolved by GC-MS or LC-MS. Lipid samples were dried using a stream of N2 (for ^18O labelling studies) or air. Metabolite and lipid extracts were submitted to the […] Metabolomics Core Resource Laboratory. For polar metabolomics, the LC column was a Millipore ZIC-pHILIC (2.1×150 […], 5 μm bead size) coupled to a Dionex […] 3000 system. The column oven temperature was held at 25° C. The flow rate was 100 μL/min, and the injection volume was 1 μL. Buffer A was 10 mM ammonium carbonate in water, pH 9, and Buffer B was neat acetonitrile. The gradient profile was 80-20% B (0-30 min), 20-80% B (30-31 min), and 80-80% B (31-42 min). MS Analyses were carried out on a Thermo Q Exactive HF mass spectrometer using a heated electrospray ionization (HESI) source. The method duration was 30 min using a polarity-switching, top 5 method. The spray voltage for both positive and negative ion modes was 3.5 kV. The capillary temperature was 320° C. with a maximum spray current of 100 ρA. The full MS scan was carried out at 120,000 resolution with a scan range of 67-1000 m/z. For ^18O2 labelling experiments, full MS scans were carried out at 240,000 resolution at the same scan range. Tandem MS spectra were obtained at 15,000 resolution. All data were acquired in profile mode. Peak heights were analyzed using Xcalibur (ThermoFisher Scientific). Lipid metabolomics were acquired using a Waters CSH-C18 (2.1×100 mm, 1.7 μm) column coupled to a Dionex […] 3000 system. The column oven temperature was held at 55° C. The flow rate was 300 μL/min and the injection volume was 1 μL. Buffer A was 60:40 acetonitrile:water, 0.1% formic acid and Buffer B was 90:10 isopropanol:acetonitrile, 10 mM ammonium formate. The gradient profile was 40-43% B (0-1.25 min), 43-50% B (1.25-2 min), 50-54% B (2-11 min), 54-70% B (11-12 min), 70-99% B (12-18 min), […], 99-40% B (23-24 min), hold at 40% B (1 min). MS Analyses were carried out on a Thermo Q Exactive HF mass spectrometer using a heated electrospray ionization (HESI) source. The method duration was 20 minutes using a polarity-switching, top 10 method. The spray voltage for both positive and negative ion modes was 3.5 kV. The capillary temperature was 320° C. with a maximum spray current of 100 ρA. The full MS scan was carried out at 120,000 resolution with a scan range of 350-2000 m/z. For ^18O2 labelling experiments, full MS scan was carried out at 240,000 resolution at the same scan range. Tandem MS spectra were obtained at 15,000 resolution. All data were acquired in profile mode. Peak heights were analyzed using Xcalibur (ThermoFisher Scientific).

MIAPACA2 cells [3] = assay: Oxygen consumption rate (OCR) in spheroids; type: cell-based, human; conditions: HPDL KO cells, 1 mM, 3D conditions
Procedure: For measurement of oxygen consumption in spheroids, oxygen consumption rate (OCR) was measured with an XF96 analyzer (Seahorse Bioscience) and the Seahorse XFe96 Spheroid FluxPak, as described by the manufacturer's protocol. Spheroids were generated by seeding 40,000 cells per well into a low-attachment U-bottom 96-well plate with DMEM+10% diaFBS and 5% Matrigel. If indicated, spheroids were treated with or without 1 mM 4-HMA or 4-HB for the duration of the assay. Spheroids were allowed to form for three days before measuring oxygen consumption measurement. Each spheroid was transferred to a Spheroid FluxPak plate containing DMEM (25 mM glucose, 4 mM glutamine, and without pyruvate, phenol red and bicarbonate), and allowed to equilibrate for 1 hr at 37° C., no CO2. OCR measurements were normalized to size of the spheroid.

MIAPACA2 cells [4] = assay: 3D growth assay; type: cell-based, human; conditions: HPDL KO cells, 1 mM, three days
Procedure: For the 3D growth assay, approximately 2,500 cells were seeded into a low-attachment 96-well plate containing DMEM+10% diaFBS and 5% Matrigel. Cells were grown for three days at 37° C. and 5% CO2. Cells were also treated or without 1 mM 4-HMA or 4-HB for the duration of the assay. To measure 3D growth with the CyQUANT Cell Proliferation Assay kit, plates were frozen at −80° C., thawed at room temperature, and equal volumes of 2× CyQUANT reagent+lysis buffer was added to the wells. As a control, wells containing media+5% Matrigel and no cells were used as blanks. CyQUANT measurements were performed as described in the manufacturer's instructions.

HPDL [5] = assay: HPDL levels in the cell after addition of HPDL products; type: cell-based

In the case of `N[C@@H](Cc1ccc(O)cc1)C(=O)O` [Tyr, tyrosine], the “IOX1 Sensitive (Yes/No)” value (human cells) was “Yes” and the “4-HMA production by HPDL from the substrate” value (HPDL [1]) was “not”.

`O=C(O)c1ccc(O)cc1` [Metabolite 4-HB, 4-hydroxybenzoic acid] was tested, and the “effect on intracellular levels of the other Tyr-derived metabolites” value (MIAPACA2 cells [2]; 24 hours) was “did not change Tyr, 4-HPPA, 4-HPLA, and 4-HMA levels”, the “increase of the fraction of unlabelled (non-labelled) CoQ10” value (MIAPACA2 cells [2]; 24 hours) was 30% and the OCR (MIAPACA2 cells [3]) was “increased”. The 3D growth (MIAPACA2 cells [4]) was “increased” and the “HPDL levels in the cell” value (HPDL [5]) was “reduce”.

In the case of `O=C(O)C(O)c1ccc(O)cc1` (racemic) [Metabolite 4-HMA, 2-hydroxy-2-(4-hydroxyphenyl)acetic acid], the “incorporation into CoQ10” value (MIAPACA2 cells [2]) was “incorporated into CoQ10”, the “effect on 4-HB levels” value (MIAPACA2 cells [2]; exogenous metabolite, 24 hours) was “minimal effect” and the “effect on intracellular levels of the other Tyr-derived metabolites” value (MIAPACA2 cells [2]; 24 hours) was “had no effect on Tyr, 4-HPPA and 4-HPLA levels”. For the same molecule, the “increase of the fraction of unlabelled (non-labelled) CoQ10” value (MIAPACA2 cells [2]; 24 hours) was 30%, the OCR (MIAPACA2 cells [3]) was “increased” and the “IOX1 Sensitive (Yes/No)” value (human cells) was “Yes”. For the same molecule, the 3D growth (MIAPACA2 cells [4]) was “increased” and the “HPDL levels in the cell” value (HPDL [5]) was “reduce”.

With `O=C(O)C(=O)Cc1ccc(O)cc1` [Metabolite 4-HPPA, 4-hydroxyphenylpyruvate] the “increase of the fraction of unlabelled (non-labelled) CoQ10” value (MIAPACA2 cells [2]; 24 hours) was 30% and the “4-HMA production by HPDL from the substrate” value (HPDL [1]) was “resulted in the generation of 4-HMA; also recorded: synthesized 4-HMA”.
